Measurements from the supplement of paper PMC10933113.
± gives the uncertainty stated by the source.

Legend:
[1] = system: KeratinoSens (HaCaT ARE-luciferase) cells; experiment: cytotoxicity AC50 (CellTiter-Fluor viability); higher = less cytotoxic; details: exposure time: 24 h
THP-1 [2] = experiment: AC50 of IL-8 secretion induction; higher = less potent; details: exposure time: 18 h
[3] = system: lysine peptide Ac-RFAAKAA-COOH; experiment: efficacy of lysine peptide change (negative = depletion) (% activity); higher = less depletion; details: incubation time: 24 h
[4] = system: cysteine peptide Ac-RFAACAA-COOH; experiment: efficacy of cysteine peptide change (negative = depletion) (% activity); higher = less depletion; details: incubation time: 24 h
THP-1 [5] = experiment: efficacy of IL-8 induction relative to DMSO (% activity); higher = stronger induction; details: exposure time: 18 h
[6] = system: KeratinoSens (HaCaT ARE-luciferase) cells; experiment: efficacy of ARE luciferase induction relative to DMSO (% activity over DMSO); higher = stronger induction; details: exposure time: 24 h
[7] = system: cysteine peptide Ac-RFAACAA-COOH; experiment: AC50 of cysteine peptide concentration-response (direction given by sign of efficacy); higher = less potent; details: incubation time: 24 h
[8] = system: KeratinoSens (HaCaT ARE-luciferase) cells; experiment: AC50 of Nrf2/ARE luciferase induction; higher = less potent; details: exposure time: 24 h

| Compound | efficacy of lysine peptide change [3] | efficacy of cysteine peptide change [4] | AC50 [7] [µM] | cytotoxicity AC50 [1] [µM] | AC50 of IL-8 secretion induction (THP-1 [2]) [µM] | efficacy of IL-8 induction (THP-1 [5]) | efficacy of ARE luciferase induction [6] | AC50 of Nrf2/ARE luciferase induction [8] [µM] |
| --- | --- | --- | --- | --- | --- | --- | --- | --- |
| CCCCNC(=O)OCC#CI [Carbamic acid, butyl-, 3-iodo-2-propynyl ester] | 64.6 ± 18 | -92.5 ± 3.8 | 1.05 ± 0.13 | 37.1 ± 4.7 |  | 20.3 ± 4.5 | 133 ± 50 | 27.3 |
| Clc1nc(C(Cl)(Cl)Cl)c(Cl)c(Cl)c1Cl [2,3,4,5-Tetrachloro-6-(trichloromethyl)pyridine] | 1.85 ± 3.2 | -2.03 ± 3.5 |  | 37.1 ± 4.7 | 47.3 | 33.7 ± 5.8 | 43.7 ± 28 |  |
| Nc1ccc(N)cc1 [1,4-Benzenediamine] | 61 ± 17 | -107 ± 20 | 9.58 ± 2.8 |  |  | 19.1 ± 5.7 | 54.5 ± 20 | 39.8 |
| c1ccc(Nc2ccc(Nc3ccccc3)cc2)cc1 [N,N'-Diphenyl-p-phenylenediamine] | -22.2 ± 3.3 | -119 ± 12 | 23 ± 18 | 55.2 ± 14 |  | 9.77 ± 9.9 | 54.7 ± 14 | 22.5 |
| N#C/C=C/C#N [Fumaronitrile] | -12.4 ± 34 | -104 ± 7.3 | 3.3 ± 0.42 | 23.1 ± 6.4 |  | 8.38 ± 7.6 | 193 ± 39 | 32.9 |
| CC(C)=CC1C(C(=O)OCc2coc(Cc3ccccc3)c2)C1(C)C (stereo not given) [Resmethrin] | -58 ± 4.8 | -122 ± 8.3 | 58.1 ± 19 |  |  | 4.15 ± 7.2 | 69.7 ± 30 | 46.5 |
| O=[N+]([O-])c1ccc(Oc2ccc(C(F)(F)F)cc2[N+](=O)[O-])cc1 [Fluorodifen] | 2.81 ± 12 | -4.44 ± 7.7 |  | 29.6 ± 5.3 | 43.1 | 109 ± 12 | 45.8 ± 80 |  |
| Cc1ccc2c(c1N)C(=O)c1ccccc1C2=O [1-Amino-2-methylanthraquinone] | -8.55 ± 7.6 | -101 ± 4.8 | 24.3 ± 3.4 |  |  | 0 | 55.7 ± 35 | 37.8 |
| c1ccc2c(c1)OCC(C1=NCCN1)O2 (stereo not given) [Idazoxan] | -1.64 ± 20 | -124 ± 14 | 27.3 ± 3.8 | 22.4 |  | 12.4 ± 3.5 | 39.9 ± 3.1 | 12.6 |
| c1ccc2cc3c(ccc4ccccc43)cc2c1 [Benz(a)anthracene] | -36.8 ± 14 | -97.8 ± 2.9 | 12.2 ± 1.7 |  |  | 32.1 ± 4.5 | 126 ± 33 | 40 |
| CN(C)c1ccc(SC#N)cc1 [4-(Dimethylamino)phenylthiocyanate] | 1.57 ± 29 | -101 ± 5.4 | 3.84 ± 0.25 | 65 ± 18 |  | 87.8 ± 8.9 | 73.3 ± 36 | 34.2 |

More lines, main results first:

| efficacy of lysine peptide change [3] | efficacy of cysteine peptide change [4] | AC50 [7] [µM] | Compound | cytotoxicity AC50 [1] [µM] | AC50 of IL-8 secretion induction (THP-1 [2]) [µM] | efficacy of IL-8 induction (THP-1 [5]) | efficacy of ARE luciferase induction [6] | AC50 of Nrf2/ARE luciferase induction [8] [µM] |
| --- | --- | --- | --- | --- | --- | --- | --- | --- |
| -5.24 ± 15 | 1.78 ± 13 |  | CCN(CC)c1ccc(C(=O)c2ccccc2C(=O)O)c(O)c1 [2-[4-(Diethylamino)-2-hydroxybenzoyl]benzoic acid] | 30.5 ± 2 | 38.4 | 75.5 ± 11 | 56.6 ± 46 |  |
| 85.4 ± 13 | -32.7 ± 21 |  | CCCCNC(=S)NCCCC [N,N'-Dibutylthiourea] | 62 ± 25 | 89.1 | 90.2 ± 38 | 41.8 ± 35 |  |
| -31.7 ± 10 | -105 ± 8.6 | 5.39 ± 1.6 | N=C(N)NN=C(/C=C/c1ccc([N+](=O)[O-])o1)/C=C/c1ccc([N+](=O)[O-])o1 [Nitrovin] | 6.97 ± 1.7 | 11.6 | 63.3 ± 30 | 46.8 ± 140 |  |
| -5.13 ± 15 | -101 ± 4.2 | 4.16 ± 0.53 | CC(O)C#CC(C)O (stereo not given) [Hex-3-yne-2,5-diol] | 32.9 ± 2.2 | 41.4 | 62.2 ± 17 | -35.2 ± 7.1 |  |
| 9.43 ± 16 | 5.74 ± 9.9 |  | CC1COc2ccccc2N1C(=O)C(Cl)Cl (stereo not given) [Benoxacor] | 46.5 ± 3.1 | 79.8 | 136 ± 40 | 33.2 ± 15 |  |
| -10.8 ± 18 | -22.8 ± 5 | 19.9 | CC(C)CCCCCCCOC(=O)c1ccc(C(=O)OCCCCCCCC(C)C)c(C(=O)OCCCCCCCC(C)C)c1 [Triisodecyl trimellitate] |  |  | 13.5 ± 0.9 | 72.5 ± 41 | 42.2 |
| -4 ± 6.9 | -80.8 ± 14 | 85.9 ± 5.6 | CC(C)(C)c1cc(O)c(C(C)(C)C)cc1O [2,5-Di-tert-butylbenzene-1,4-diol] | 34.2 ± 2.2 |  | 40.9 ± 4.8 | 175 ± 86 | 42.1 |
| 1.32 ± 18 | -72.8 ± 22 | 80.8 ± 18 | O=C(/C=C/C=C/c1ccc2c(c1)OCO2)N1CCCCC1 [Piperine] | 44 ± 11 |  | 13.7 ± 14 | 76 ± 12 | 29.1 |
| -51.8 ± 5.7 | -100 ± 11 | 9.27 ± 3.2 | CC/C=C\C/C=C\C/C=C\CCCCCCCC(=O)OCC [Ethyl linolenate] | 32.9 ± 2.2 |  | 14.7 ± 5.5 | 95.1 ± 71 | 18.4 |
| 9.01 ± 17 | -106 ± 3.3 | 50.1 | C=CC(=O)OCCCCCCOC(=O)C=C [1,6-Hexanediol diacrylate] | 43 ± 2.8 |  | 9.97 ± 9.4 | 343 ± 90 | 35.5 |
| -21.7 ± 10 | -92.2 ± 5 | 0.9 ± 0.1 | COc1cccc2c1C(=O)c1c(O)c3c(c(O)c1C2=O)C[C@@](O)(C(=O)CO)C[C@@H]3O[C@H]1C[C@H](N)[C@H](O)[C@H](C)O1 [Doxorubicin*] | 11.3 ± 1.3 |  | 31.2 ± 4.9 | 860 ± 140 | 7.94 |
| -110 ± 23 | -129 ± 9.8 | 17 ± 5 | C/C=C/C=C/C=O [2,4-Hexadienal] |  |  | 12.8 ± 12 | 427 ± 46 | 73.7 |
| -2.94 ± 13 | -111 ± 7.3 | 34.1 ± 14 | C=CC(=O)OCCOC(=O)CCC(=O)O [4-[2-(Acryloyloxy)ethoxy]-4-oxobutanoic acid] |  |  | 0 | 87.4 ± 29 | 61.3 |
| 154 ± 29 | -112 ± 9.3 | 1.59 ± 0.18 | CCCSS/C(CCO)=C(/C)N(C=O)Cc1cnc(C)nc1N [Prosultiamine] | 26.1 ± 1.8 |  | 30.5 ± 12 | 433 ± 21 | 15.8 |
| 107 ± 12 | -93.5 ± 7.5 | 0.29 ± 0.07 | CCOc1ccc2nc3cc(N)ccc3c(N)c2c1 [Ethacridine lactate monohydrate] |  |  | 13.6 ± 2.8 | 86.2 ± 47 | 29.4 |
| -53.1 ± 24 | 5.83 ± 10 |  | S=C(NC1CCCCC1)NC1CCCCC1 [N,N'-Dicyclohexylthiourea] | 53.1 ± 25 | 85.9 | 84.8 ± 36 | 82 ± 95 |  |
